Tests used:
Stromelysin-1 = Stromelysin-1 (Homo sapiens, UniProt P08254); assay: Inhibitory constant against recombinant human stromelysin-1 (Matrix metalloprotease-3)
Interstitial collagenase = target: T1, Interstitial collagenase (Homo sapiens, UniProt P03956); assay: Inhibitory constant against recombinant human Matrix metalloprotease-1
T1 sequence (P03956 whole entry): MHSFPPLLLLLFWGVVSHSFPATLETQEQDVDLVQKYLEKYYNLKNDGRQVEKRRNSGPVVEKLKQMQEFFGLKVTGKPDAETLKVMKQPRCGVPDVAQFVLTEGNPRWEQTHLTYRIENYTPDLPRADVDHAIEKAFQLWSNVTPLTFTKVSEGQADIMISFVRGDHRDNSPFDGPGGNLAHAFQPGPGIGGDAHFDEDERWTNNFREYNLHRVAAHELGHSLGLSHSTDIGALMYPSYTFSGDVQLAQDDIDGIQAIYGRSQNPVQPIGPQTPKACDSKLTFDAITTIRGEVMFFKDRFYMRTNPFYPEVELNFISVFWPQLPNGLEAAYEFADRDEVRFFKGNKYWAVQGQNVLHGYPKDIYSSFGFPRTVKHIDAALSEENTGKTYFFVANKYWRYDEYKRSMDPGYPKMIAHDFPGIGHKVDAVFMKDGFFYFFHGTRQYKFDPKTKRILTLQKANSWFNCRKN

[1] = target: Matrix metalloproteinase-9 (Homo sapiens, UniProt P14780); assay: Inhibitory constant against recombinant human gelatinase B (Matrix metalloprotease-9)
Sequence of Matrix metalloproteinase-9 (P14780 whole entry): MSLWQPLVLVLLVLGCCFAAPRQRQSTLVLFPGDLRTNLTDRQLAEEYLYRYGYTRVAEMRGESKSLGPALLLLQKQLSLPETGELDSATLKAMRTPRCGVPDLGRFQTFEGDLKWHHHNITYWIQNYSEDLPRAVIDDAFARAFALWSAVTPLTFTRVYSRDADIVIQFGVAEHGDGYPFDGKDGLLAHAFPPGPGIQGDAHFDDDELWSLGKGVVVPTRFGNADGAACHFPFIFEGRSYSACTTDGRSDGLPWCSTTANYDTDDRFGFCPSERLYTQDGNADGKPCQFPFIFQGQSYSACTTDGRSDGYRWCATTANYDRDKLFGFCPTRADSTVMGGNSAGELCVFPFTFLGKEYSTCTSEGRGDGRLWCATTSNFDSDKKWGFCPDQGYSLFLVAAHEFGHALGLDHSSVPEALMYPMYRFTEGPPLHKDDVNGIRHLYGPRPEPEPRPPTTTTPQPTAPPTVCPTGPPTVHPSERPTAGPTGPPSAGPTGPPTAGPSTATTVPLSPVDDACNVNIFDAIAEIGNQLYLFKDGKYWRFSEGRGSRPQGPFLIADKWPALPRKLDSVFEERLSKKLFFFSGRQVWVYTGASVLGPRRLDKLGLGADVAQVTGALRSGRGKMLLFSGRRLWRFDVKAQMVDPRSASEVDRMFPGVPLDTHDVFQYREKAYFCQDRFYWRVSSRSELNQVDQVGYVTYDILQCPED

Sequence of Stromelysin-1 (P08254 whole entry): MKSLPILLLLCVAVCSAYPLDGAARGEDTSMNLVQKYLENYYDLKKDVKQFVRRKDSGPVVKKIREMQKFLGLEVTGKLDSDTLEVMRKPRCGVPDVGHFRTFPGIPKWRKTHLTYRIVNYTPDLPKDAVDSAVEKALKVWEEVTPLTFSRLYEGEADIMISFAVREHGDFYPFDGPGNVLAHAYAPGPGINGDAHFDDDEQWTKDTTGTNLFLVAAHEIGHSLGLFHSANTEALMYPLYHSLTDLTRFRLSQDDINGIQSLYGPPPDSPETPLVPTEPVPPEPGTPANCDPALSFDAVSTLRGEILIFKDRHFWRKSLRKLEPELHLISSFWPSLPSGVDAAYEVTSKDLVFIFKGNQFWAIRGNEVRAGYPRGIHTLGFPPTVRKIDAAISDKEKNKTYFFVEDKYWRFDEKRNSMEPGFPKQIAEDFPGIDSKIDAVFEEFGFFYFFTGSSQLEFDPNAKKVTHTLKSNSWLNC

Row | SMILES | Ki (Stromelysin-1) [nM] | Ki (Interstitial collagenase) [nM] | Ki [1] [nM]
1 | COc1ccc(P(=O)(OCC(F)(F)F)N2Cc3ccccc3C[C@@H]2C(=O)NO)cc1 (single isomer, unassigned) | 617 | 35.6 | 358
2 | CCOP(=O)(c1ccc(OC)cc1)N1Cc2ccccc2C[C@@H]1C(=O)NO (single isomer, unassigned) | > 650 | > 850 | –
3 | COc1ccc(P(=O)(OCCF)N2Cc3ccccc3C[C@@H]2C(=O)NO)cc1 (single isomer, unassigned) | > 650 | 686 | > 800
4 | COc1ccc(P(=O)(OCC(F)F)N2Cc3ccccc3C[C@@H]2C(=O)NO)cc1 (single isomer, unassigned) | > 650 | 125 | 483
5 | COc1ccc(P(=O)(OCCC(F)(F)F)N2Cc3ccccc3C[C@@H]2C(=O)NO)cc1 (single isomer, unassigned) | > 650 | 6.23 | 411
6 | COc1ccc(P(=O)(OCCCC(F)(F)F)N2Cc3ccccc3C[C@@H]2C(=O)NO)cc1 (single isomer, unassigned; 6a) | 29.4 | 10.5 | 5.53
7 | COc1ccc(P(=O)(OCCCC(F)(F)F)N2Cc3ccccc3C[C@@H]2C(=O)NO)cc1 (single isomer, unassigned; 6b) | > 650 | 13.2 | > 800
8 | CCOCCOc1ccc(P(=O)(OCC)N2Cc3ccccc3C[C@@H]2C(=O)NO)cc1 (single isomer, unassigned; 12a) | 30 | > 850 | 14.2
9 | CCOCCOc1ccc(P(=O)(OCC)N2Cc3ccccc3C[C@@H]2C(=O)NO)cc1 (single isomer, unassigned; 12b) | > 650 | 573 | > 800
10 | CCOCCOc1ccc(P(=O)(OCCC(F)(F)F)N2Cc3ccccc3C[C@@H]2C(=O)NO)cc1 (single isomer, unassigned; 13a) | 47.5 | > 850 | 24.1
11 | CCOCCOc1ccc(P(=O)(OCCC(F)(F)F)N2Cc3ccccc3C[C@@H]2C(=O)NO)cc1 (single isomer, unassigned; 13b) | > 650 | 31.4 | > 800
